Source: PubChem BioAssay AID2060903 (Molecular Pharmacology Branch, DTP, NCI, 2025)

Tested on: 377384-186-R-J1-PDC complex spheroid viability
Test: Anticancer human tumor 377384-186-R-J1-PDC patient-derived pancreatic carcinoma cell line growth inhibition [RAS]
Settings: for IC50: curve of first compound; for viability, T/C: stronger effect = lower value
Summary of the method: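 Multi-cell-type spheroids: tumor cells plus HUVEC endothelial cells and mesenchymal stem cells. RAS-pathway inhibitors were combined with targeted agents, each dosed in half-log steps down from clinical Cmax, or from 10 microM when Cmax was unknown.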

[1] = second compound 0.000949 µM, first compound 0.0316 µM
[2] = second compound 0.000949 µM, first compound 0.1 µM
[3] = second compound 0.000949 µM, first compound 0.316 µM
[4] = second compound 0.000949 µM, first compound 1 µM
[5] = second compound 0.000949 µM, first compound 3.16 µM
[6] = second compound 0.000949 µM, first compound 10 µM
[7] = second compound 0.003 µM, first compound 0.0316 µM
[8] = second compound 0.003 µM, first compound 0.1 µM
[9] = second compound 0.003 µM, first compound 0.316 µM
[10] = second compound 0.003 µM, first compound 1 µM
[11] = second compound 0.003 µM, first compound 3.16 µM
[12] = second compound 0.003 µM, first compound 10 µM
[13] = second compound 0.00949 µM, first compound 0.0316 µM
[14] = second compound 0.00949 µM, first compound 0.1 µM
[15] = second compound 0.00949 µM, first compound 0.316 µM
[16] = second compound 0.00949 µM, first compound 1 µM
[17] = second compound 0.00949 µM, first compound 3.16 µM
[18] = second compound 0.00949 µM, first compound 10 µM
[19] = second compound 0.03 µM, first compound 0.0316 µM
[20] = second compound 0.03 µM, first compound 0.1 µM
[21] = second compound 0.03 µM, first compound 0.316 µM
[22] = second compound 0.03 µM, first compound 1 µM
[23] = second compound 0.03 µM, first compound 3.16 µM
[24] = second compound 0.03 µM, first compound 10 µM
[25] = second compound 0.0949 µM, first compound 0.0316 µM
[26] = second compound 0.0949 µM, first compound 0.1 µM
[27] = second compound 0.0949 µM, first compound 0.316 µM
[28] = second compound 0.0949 µM, first compound 1 µM
[29] = second compound 0.0949 µM, first compound 3.16 µM
[30] = second compound 0.0949 µM, first compound 10 µM
[31] = second compound 0.3 µM, first compound 0.0316 µM
[32] = second compound 0.3 µM, first compound 0.1 µM
[33] = second compound 0.3 µM, first compound 0.316 µM
[34] = second compound 0.3 µM, first compound 1 µM
[35] = second compound 0.3 µM, first compound 3.16 µM
[36] = second compound 0.3 µM, first compound 10 µM
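Also: spheroids exposed to compounds for seven days before readout.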

CC(C)NCC(C(=O)N1CCN(c2ncnc3c2C(C)CC3O)CC1)c1ccc(Cl)cc1 (stereo not drawn) + CCn1c(-c2cc(N3CCN(C)CC3)cnc2C(C)OC)c2c3cc(ccc31)-c1csc(n1)CC(NC(=O)C1CC1C)C(=O)N1CCCC(N1)C(=O)OCC(C)(C)C2
IC50 (second compound 0.000949 µM): 0.126 µM
IC50 (second compound 0.003 µM): < 0.0316 µM
IC50 (second compound 0.00949 µM): < 0.0316 µM
IC50 (second compound 0.03 µM): < 0.0316 µM
IC50 (second compound 0.0949 µM): < 0.0316 µM
IC50 (second compound 0.3 µM): < 0.0316 µM
viability, T/C [1]: 60.4%
viability, T/C [2]: 54.6%
viability, T/C [3]: 38.6%
viability, T/C [4]: 34.1%
viability, T/C [5]: 34.1%
viability, T/C [6]: 19%
viability, T/C [7]: 19.6%
viability, T/C [8]: 21.2%
viability, T/C [9]: 17.9%
viability, T/C [10]: 16.4%
viability, T/C [11]: 12.7%
viability, T/C [12]: 8.24%
viability, T/C [13]: 5.67%
viability, T/C [14]: 5.95%
viability, T/C [15]: 5.17%
viability, T/C [16]: 7.15%
viability, T/C [17]: 6.27%
viability, T/C [18]: 3.27%
viability, T/C [19]: 3.25%
viability, T/C [20]: 2.3%
viability, T/C [21]: 2.13%
viability, T/C [22]: 1.68%
viability, T/C [23]: 1.07%
viability, T/C [24]: 0.92%
viability, T/C [25]: 1.84%
viability, T/C [26]: 1.86%
viability, T/C [27]: 1.46%
viability, T/C [28]: 1.22%
viability, T/C [29]: 0.74%
viability, T/C [30]: 0.17%
viability, T/C [31]: 2%
viability, T/C [32]: 2.02%
viability, T/C [33]: 1.61%
viability, T/C [34]: 0.77%
viability, T/C [35]: 0.64%
viability, T/C [36]: 0.3%

CC(C)n1nc(-c2ccc3oc(N)nc3c2)c2c(N)ncnc21 + CCn1c(-c2cc(N3CCN(C)CC3)cnc2C(C)OC)c2c3cc(ccc31)-c1csc(n1)CC(NC(=O)C1CC1C)C(=O)N1CCCC(N1)C(=O)OCC(C)(C)C2
IC50 (second compound 0.000949 µM): 0.000989 µM
IC50 (second compound 0.003 µM): < 0.000316 µM
IC50 (second compound 0.00949 µM): < 0.000316 µM
IC50 (second compound 0.03 µM): < 0.000316 µM
IC50 (second compound 0.0949 µM): < 0.000316 µM
IC50 (second compound 0.3 µM): < 0.000316 µM
viability, T/C (second compound 0.000949 µM, first compound 0.000316 µM): 48.6%
viability, T/C (second compound 0.000949 µM, first compound 0.001 µM): 57.8%
viability, T/C (second compound 0.000949 µM, first compound 0.00316 µM): 35.5%
viability, T/C (second compound 0.000949 µM, first compound 0.01 µM): 26.4%
viability, T/C [1]: 16.2%
viability, T/C [2]: 10.3%
viability, T/C (second compound 0.003 µM, first compound 0.000316 µM): 20.1%
viability, T/C (second compound 0.003 µM, first compound 0.001 µM): 24.1%
viability, T/C (second compound 0.003 µM, first compound 0.00316 µM): 17.6%
viability, T/C (second compound 0.003 µM, first compound 0.01 µM): 13.7%
viability, T/C [7]: 8.27%
viability, T/C [8]: 4.84%
viability, T/C (second compound 0.00949 µM, first compound 0.000316 µM): 4.46%
viability, T/C (second compound 0.00949 µM, first compound 0.001 µM): 4.86%
viability, T/C (second compound 0.00949 µM, first compound 0.00316 µM): 4.1%
viability, T/C (second compound 0.00949 µM, first compound 0.01 µM): 5.4%
viability, T/C [13]: 4.11%
viability, T/C [14]: 2.39%
viability, T/C (second compound 0.03 µM, first compound 0.000316 µM): 2.29%
viability, T/C (second compound 0.03 µM, first compound 0.001 µM): 2.17%
viability, T/C (second compound 0.03 µM, first compound 0.00316 µM): 2.37%
viability, T/C (second compound 0.03 µM, first compound 0.01 µM): 1.66%
viability, T/C [19]: 1.3%
viability, T/C [20]: 0.91%
viability, T/C (second compound 0.0949 µM, first compound 0.000316 µM): 1.81%
viability, T/C (second compound 0.0949 µM, first compound 0.001 µM): 2.1%
viability, T/C (second compound 0.0949 µM, first compound 0.00316 µM): 2.12%
viability, T/C (second compound 0.0949 µM, first compound 0.01 µM): 1.18%
viability, T/C [25]: 0.96%
viability, T/C [26]: 0.58%
viability, T/C (second compound 0.3 µM, first compound 0.000316 µM): 1.71%
viability, T/C (second compound 0.3 µM, first compound 0.001 µM): 1.54%
viability, T/C (second compound 0.3 µM, first compound 0.00316 µM): 1.69%
viability, T/C (second compound 0.3 µM, first compound 0.01 µM): 1.04%
viability, T/C [31]: 0.89%
viability, T/C [32]: 0.59%

CC(Nc1ccc2c(c1)OCCn1cc(N3C(=O)OCC3C(F)F)nc1-2)C(N)=O (stereo not drawn) + CCn1c(-c2cc(N3CCN(C)CC3)cnc2C(C)OC)c2c3cc(ccc31)-c1csc(n1)CC(NC(=O)C1CC1C)C(=O)N1CCCC(N1)C(=O)OCC(C)(C)C2
IC50 (second compound 0.000949 µM): < 0.0316 µM
IC50 (second compound 0.003 µM): < 0.0316 µM
IC50 (second compound 0.00949 µM): < 0.0316 µM
IC50 (second compound 0.03 µM): < 0.0316 µM
IC50 (second compound 0.0949 µM): < 0.0316 µM
IC50 (second compound 0.3 µM): < 0.0316 µM
viability, T/C [1]: 38.5%
viability, T/C [2]: 27%
viability, T/C [3]: 20.7%
viability, T/C [4]: 14.9%
viability, T/C [5]: 15.3%
viability, T/C [6]: 10%
viability, T/C [7]: 16.6%
viability, T/C [8]: 13.9%
viability, T/C [9]: 6.73%
viability, T/C [10]: 6.02%
viability, T/C [11]: 4.06%
viability, T/C [12]: 4.35%
viability, T/C [13]: 4.34%
viability, T/C [14]: 2.53%
viability, T/C [15]: 3.61%
viability, T/C [16]: 1.94%
viability, T/C [17]: 1.23%
viability, T/C [18]: 0.59%
viability, T/C [19]: 1.88%
viability, T/C [20]: 1.58%
viability, T/C [21]: 0.84%
viability, T/C [22]: 0.45%
viability, T/C [23]: 0.4%
viability, T/C [24]: 0.18%
viability, T/C [25]: 1.11%
viability, T/C [26]: 0.55%
viability, T/C [27]: 0.59%
viability, T/C [28]: 0.36%
viability, T/C [29]: 0.09%
viability, T/C [30]: 0.09%
viability, T/C [31]: 1.13%
viability, T/C [32]: 0.5%
viability, T/C [33]: 0.4%
viability, T/C [34]: 0.29%
viability, T/C [35]: 0.21%
viability, T/C [36]: 0.14%

C[C@@H](NC(=O)c1ncnc(N)c1Cl)c1ncc(C(=O)Nc2cc(C(F)(F)F)c(Cl)cn2)s1 + CCn1c(-c2cc(N3CCN(C)CC3)cnc2C(C)OC)c2c3cc(ccc31)-c1csc(n1)CC(NC(=O)C1CC1C)C(=O)N1CCCC(N1)C(=O)OCC(C)(C)C2
IC50 (second compound 0.000949 µM): > 10 µM
IC50 (second compound 0.003 µM): < 0.0316 µM
IC50 (second compound 0.00949 µM): < 0.0316 µM
IC50 (second compound 0.03 µM): < 0.0316 µM
IC50 (second compound 0.0949 µM): < 0.0316 µM
IC50 (second compound 0.3 µM): < 0.0316 µM
viability, T/C [1]: 60.5%
viability, T/C [2]: 68%
viability, T/C [3]: 62.4%
viability, T/C [4]: 69.9%
viability, T/C [5]: 65.2%
viability, T/C [6]: 49%
viability, T/C [7]: 39.1%
viability, T/C [8]: 36.5%
viability, T/C [9]: 34.7%
viability, T/C [10]: 40.3%
viability, T/C [11]: 29.3%
viability, T/C [12]: 19.9%
viability, T/C [13]: 8.23%
viability, T/C [14]: 12.1%
viability, T/C [15]: 12.7%
viability, T/C [16]: 11.6%
viability, T/C [17]: 14%
viability, T/C [18]: 11.2%
viability, T/C [19]: 2.09%
viability, T/C [20]: 2.73%
viability, T/C [21]: 3.94%
viability, T/C [22]: 4.72%
viability, T/C [23]: 3.74%
viability, T/C [24]: 2.97%
viability, T/C [25]: 2.41%
viability, T/C [26]: 2.22%
viability, T/C [27]: 2.96%
viability, T/C [28]: 3.02%
viability, T/C [29]: 2.41%
viability, T/C [30]: 1.87%
viability, T/C [31]: 1.66%
viability, T/C [32]: 2.36%
viability, T/C [33]: 2.7%
viability, T/C [34]: 2.88%
viability, T/C [35]: 2.27%
viability, T/C [36]: 2.12%
